The target in the assay is T1, SOS1 (Homo sapiens, UniProt Q07889).
T1 construct: adding equal amounts of HIS-SOS1cat (160 nM; Cytoskeleton, US); His; purchased Cytoskeleton, US
T1 sequence (Q07889 564-1049 limits assumed): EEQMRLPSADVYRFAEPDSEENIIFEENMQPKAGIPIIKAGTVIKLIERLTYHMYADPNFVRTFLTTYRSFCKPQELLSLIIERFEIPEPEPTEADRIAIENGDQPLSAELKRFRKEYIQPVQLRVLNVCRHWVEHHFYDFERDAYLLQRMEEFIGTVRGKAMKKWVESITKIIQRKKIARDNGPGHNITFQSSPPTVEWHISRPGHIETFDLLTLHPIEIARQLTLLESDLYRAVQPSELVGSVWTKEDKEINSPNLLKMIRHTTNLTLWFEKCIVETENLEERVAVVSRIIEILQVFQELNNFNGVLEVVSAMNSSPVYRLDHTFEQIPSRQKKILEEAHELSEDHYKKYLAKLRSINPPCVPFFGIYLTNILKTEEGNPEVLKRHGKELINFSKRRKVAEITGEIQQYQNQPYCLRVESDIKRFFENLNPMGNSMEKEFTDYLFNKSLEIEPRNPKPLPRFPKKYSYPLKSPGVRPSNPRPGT
The experiment in a line: SOS-catalyzed nucleotide exchange assay (HTRF, SOS1-mediated GTP loading of KRAS G12D). Particulars: GST-KRAS G12D, HIS-SOS1cat, EDA-GTP-DY-647P1; compound 128 pM to 10 µM; read-out: SOS-catalyzed nucleotide exchange assay (IC50 range, Grade). Type of assay: biochemical. The method, then:
SOS1 activity was measured by SOS1-mediated GTP loading quantification of KRAS^G12D. GTP-loaded KRAS^G12D was detected by HTRF (Homogeneous Time Resolved Fluorescence) using anti-GST terbium (Cisbio, France) as a donor and a fluorescence GTP analogue (EDA-GTP-DY-647P1, [DY-647P1-labeled 2'/3'-O-(2-aminoethyl-carbamoyl)guanosine-5'-triphosphate (Jena bioscience, Germany)]) as an acceptor.
Assay buffer was composed of 10 mM HEPES pH 7.4, 150 mM NaCl, 5 mM MgCl2, 1 mM DTT, 0.05% BSA Fraction V pH 7.0 (Sigma) and 0.0025% (v/v) Igepal (Sigma). KRAS^G12D working solution was prepared by adding equal amounts of GST-KRAS^G12D (100 nM) and anti-GST-terbium (2 nM; Cisbio, France) to the assay buffer and incubating on ice for 10 minutes. SOS1cat working solution was prepared by adding equal amounts of HIS-SOS1cat (160 nM; Cytoskeleton, US) and EDA-GTP-DY-647P1 (200 nM; Jena bioscience, Germany) to the assay buffer. Control solution was prepared by adding equal volumes of EDA-GTP-DY-647P1 and the assay buffer for normalization control to exclude GEF-independent GTP loading and background signals. In order to induce a reaction, 5 µL of the SOS1cat working solution or the control solution was injected into each well. 5 µL of a compound having various concentrations from 128 pM to 10 µM was added to wells containing the SOS1cat working solution and incubated at room temperature for 10 minutes to bind to SOS1.
10 µL of the KRAS^G12D solution was added to each well and incubated for 30 minutes at room temperature while shaking. HTRF was measured using a Thermo Varioskan (excitation 334 nm, emission 665 nm). The IC50 of each inhibitor was analyzed using Graphad Prism.
The SOS1 inhibitory activity of the Example compounds measured by the above method was evaluated based on the following criteria, and the results are shown in Table 29.
(Time-resolved FRET reads energy transfer from a long-lived donor to a nearby acceptor.)
One may read the IC50 as the concentration at which inhibition is half-maximal. For `C[C@@H](NC(=O)c1ccc(=O)n(-c2ccccc2)n1)c1cccc(C#N)c1` [Example 4, (R)-N-(1-(3-cyanophenyl)ethyl)-6-oxo-1-phenyl-1,6-dihydropyridazine-3-carboxamide], the half-maximal inhibitory concentration (IC50) fell in the range of 1 to 10 µM.

In the case of `C[C@@H](NC(=O)c1ccc(=O)n(-c2ccccc2)n1)c1ccc(Cl)cc1` [Example 5, (R)-N-(1-(4-chlorophenyl)ethyl)-6-oxo-1-phenyl-1,6-dihydropyridazine-3-carboxamide], the IC50 was over 10 µM.

With `C[C@@H](NC(=O)c1ccc(=O)n(-c2ccccc2)n1)c1ccc(Br)cc1` [Example 6, (R)-N-(1-(4-bromophenyl)ethyl)-6-oxo-1-phenyl-1,6-dihydropyridazine-3-carboxamide], the IC50 was over 10 µM.

For `Cc1ccc([C@@H](C)NC(=O)c2ccc(=O)n(-c3ccccc3)n2)cc1` [Example 7, (R)-6-oxo-1-phenyl-N-(1-(p-tolyl)ethyl)-1,6-dihydropyridazine-3-carboxamide], the IC50 is over 10 µM.

On to `C[C@@H](NC(=O)c1ccc(=O)n(-c2ccccc2)n1)c1ccc2ccccc2c1` [Example 8, N-[(1R)-1-(2-naphthyl)ethyl]-6-oxo-1-phenyl-pyridazine-3-carboxamide], for which the IC50 fell in the range of 1 to 10 µM.

With `C[C@@H](NC(=O)c1ccc(=O)n(-c2ccccc2)n1)c1cccc2ccccc12` [Example 9, N-[(1R)-1-(1-naphthyl)ethyl]-6-oxo-1-phenyl-pyridazine-3-carboxamide], the half-maximal inhibitory concentration (IC50) lay in the range of 1 to 10 µM.

As for `C[C@@H](NC(=O)c1ccc(=O)n(-c2ccccc2)n1)c1cccc(OC(F)(F)F)c1` [Example 10, 6-oxo-1-phenyl-N-[(1R)-1-[3-(trifluoromethoxy)phenyl]ethyl]pyridazine-3-carboxamide], the IC50 was 1 to 10 µM.

With `C[C@@H](NC(=O)c1ccc(=O)n(-c2ccccc2)n1)c1cccc(S(C)(=O)=O)c1` [Example 11, N-[(1R)-1-(3-methylsulfonylphenyl)ethyl]-6-oxo-1-phenyl-pyridazine-3-carboxamide], the IC50 fell in the range of 1 to 10 µM.

Turning to `C[C@@H](NC(=O)c1ccc(=O)n(-c2ccccc2)n1)c1ccc(S(C)(=O)=O)cc1` [Example 12, N-[(1R)-1-(4-methylsulfonylphenyl)ethyl]-6-oxo-1-phenyl-pyridazine-3-carboxamide], the IC50 was over 10 µM.

On to `C[C@@H](NC(=O)c1ccc(=O)n(-c2ccccc2)n1)c1cccc(Oc2ccccc2)c1` [Example 13, 6-oxo-N-[(1R)-1-(3-phenoxyphenyl)ethyl]-1-phenyl-pyridazine-3-carboxamide], for which the IC50 was under 1 µM.

On to `C[C@@H](NC(=O)c1ccc(=O)n(-c2ccccc2)n1)c1cccc(C2CC2)c1` [Example 14, N-[(1R)-1-(3-cyclopropylphenyl)ethyl]-6-oxo-1-phenyl-pyridazine-3-carboxamide], for which the IC50 lay in the range of 1 to 10 µM.

Turning to `C[C@@H](NC(=O)c1ccc(=O)n(-c2ccccc2)n1)c1cccc(C(F)(F)F)c1` [Example 15, 6-oxo-1-phenyl-N-[(1R)-1-[3-(trifluoromethyl)phenyl]ethyl]pyridazine-3-carboxamide], the concentration for half-maximal inhibition (IC50) is under 1 µM.

`C[C@@H](NC(=O)c1ccc(=O)n(-c2ccccc2)n1)c1cc(N)cc(C(F)(F)F)c1` [Example 16, N-[(1R)-1-[3-amino-5-(trifluoromethyl)phenyl]ethyl]-6-oxo-1-phenyl-pyridazine-3-carboxamide]: the IC50 was under 1 µM.

Regarding `C[C@@H](NC(=O)c1ccc(=O)n(C2CCOCC2)n1)c1cccc(Cl)c1` [Example 17, N-[(1R)-1-(3-chlorophenyl)ethyl]-6-oxo-1-tetrahydropyran-4-yl-pyridazine-3-carboxamide], the IC50 was in the range of 1 to 10 µM.

For the compound `CC(=O)N1CCC(n2nc(C(=O)N[C@H](C)c3cccc(Cl)c3)ccc2=O)CC1` [Example 18, 1-(1-acetyl-4-piperidyl)-N-[(1R)-1-(3-chlorophenyl)ethyl]-6-oxo-pyridazine-3-carboxamide], the IC50 fell in the range of 1 to 10 µM.

As to `C[C@@H](NC(=O)c1ccc(=O)n(C2CCN(S(C)(=O)=O)CC2)n1)c1cccc(Cl)c1` [Example 19, (R)-N-(1-(3-chlorophenyl)ethyl)-1-(1-(methylsulfonyl)piperidin-4-yl)-6-oxo-1,6-dihydropyridazine-3-carboxamide], the IC50 is 1 to 10 µM.

With `C[C@@H](NC(=O)c1ccc(=O)n(-c2ccccn2)n1)c1cc(N)cc(C(F)(F)F)c1` [Example 20, N-[(1R)-1-[3-amino-5-(trifluoromethyl)phenyl]ethyl]-6-oxo-1-(2-pyridyl)pyridazine-3-carboxamide], the IC50 is under 1 µM.

Turning to `C[C@@H](NC(=O)c1ccc(=O)n(-c2ccncc2)n1)c1cc(N)cc(C(F)(F)F)c1` [Example 21, N-[(1R)-1-[3-amino-5-(trifluoromethyl)phenyl]ethyl]-6-oxo-1-(4-pyridyl)pyridazine-3-carboxamide], the IC50 is under 1 µM.

As for `Cc1ccc(-n2nc(C(=O)N[C@H](C)c3cc(N)cc(C(F)(F)F)c3)ccc2=O)s1` [Example 22, N-[(1R)-1-[3-amino-5-(trifluoromethyl)phenyl]ethyl]-1-(5-methyl-2-thienyl)-6-oxo-pyridazine-3-carboxamide], the IC50 is under 1 µM.

On to `COc1ccccc1-n1nc(C(=O)N[C@H](C)c2cc(N)cc(C(F)(F)F)c2)ccc1=O` [Example 23, N-[(1R)-1-[3-amino-5-(trifluoromethyl)phenyl]ethyl]-1-(2-methoxyphenyl)-6-oxo-pyridazine-3-carboxamide], for which the IC50 is under 1 µM.

For the compound `C[C@@H](NC(=O)c1ccc(=O)n(-c2cccc3ccccc23)n1)c1cc(N)cc(C(F)(F)F)c1` [Example 25, (R)-N-(1-(3-amino-5-(trifluoromethyl)phenyl)ethyl)-1-(naphthalen-1-yl)-6-oxo-1,6-dihydropyridazine-3-carboxamide], the IC50 is under 1 µM.

In the case of `C[C@@H](NC(=O)c1ccc(=O)n(-c2cccnc2)n1)c1cc(N)cc(C(F)(F)F)c1` [Example 26, (R)-N-(1-(3-amino-5-(trifluoromethyl)phenyl)ethyl)-6-oxo-1-(pyridin-3-yl)-1,6-dihydropyridazine-3-carboxamide], the IC50 was under 1 µM.

Take `Cc1cc(-n2nc(C(=O)N[C@H](C)c3cc(N)cc(C(F)(F)F)c3)ccc2=O)cs1` [Example 27, (R)-N-(1-(3-amino-5-(trifluoromethyl)phenyl)ethyl)-1-(5-methylthiophen-3-yl)-6-oxo-1,6-dihydropyridazine-3-carboxamide]: the IC50 is under 1 µM.

For `C[C@@H](NC(=O)c1ccc(=O)n(-c2ccccc2S(C)(=O)=O)n1)c1cc(N)cc(C(F)(F)F)c1` [Example 28, (R)-N-(1-(3-amino-5-(trifluoromethyl)phenyl)ethyl)-1-(2-(methylsulfonyl)phenyl)-6-oxo-1,6-dihydropyridazine-3-carboxamide], the IC50 is over 10 µM.

As to `C[C@@H](NC(=O)c1ccc(=O)n(-c2ccccc2C#N)n1)c1cc(N)cc(C(F)(F)F)c1` [Example 29, N-[(1R)-1-[3-amino-5-(trifluoromethyl)phenyl]ethyl]-1-(2-cyanophenyl)-6-oxo-pyridazine-3-carboxamide], the IC50 is under 1 µM.

On to `COc1ccc(-n2nc(C(=O)N[C@H](C)c3cc(N)cc(C(F)(F)F)c3)ccc2=O)cc1` [Example 30, N-[(1R)-1-[3-amino-5-(trifluoromethyl)phenyl]ethyl]-1-(4-methoxyphenyl)-6-oxo-pyridazine-3-carboxamide], for which the IC50 is under 1 µM.

As to `C[C@@H](NC(=O)c1ccc(=O)n(-c2cccc(C(=O)N(C)C)c2)n1)c1cc(N)cc(C(F)(F)F)c1` [Example 31, (R)-N-(1-(3-amino-5-(trifluoromethyl)phenyl)ethyl)-1-(3-(dimethylcarbamoyl)phenyl)-6-oxo-1,6-dihydropyridazine-3-carboxamide], the half-inhibitory concentration (IC50) is under 1 µM.

Consider `C[C@@H](NC(=O)c1ccc(=O)n(-c2ccccc2Cl)n1)c1cc(N)cc(C(F)(F)F)c1` [Example 32, (R)-N-(1-(3-amino-5-(trifluoromethyl)phenyl)ethyl)-1-(2-chlorophenyl)-6-oxo-1,6-dihydropyridazine-3-carboxamide], for which the IC50 was under 1 µM.

These data come from EP4667458A1 (Kanaph Therapeutics Inc., priority 2023, dated 2024).
